Assay results published in ChEMBL document CHEMBL4507256 (2021).

Legend:
[1] = target: AP2-associated protein kinase 1 (Homo sapiens) (UniProt Q2M2I8); details: Compound concentration 1000.0 nM
[2] = test system: Tyrosine-protein kinase ABL1 (Homo sapiens), P00519 [F317L]; details: Compound concentration 1000.0 nM
[3] = target: ALK tyrosine kinase receptor (Homo sapiens) (UniProt Q9UM73); details: Compound concentration 1000.0 nM
[4] = target: Aurora kinase A (Homo sapiens) (UniProt O14965); details: Compound concentration 1000.0 nM
Sequence of Aurora kinase A (Homo sapiens) (O14965 whole entry): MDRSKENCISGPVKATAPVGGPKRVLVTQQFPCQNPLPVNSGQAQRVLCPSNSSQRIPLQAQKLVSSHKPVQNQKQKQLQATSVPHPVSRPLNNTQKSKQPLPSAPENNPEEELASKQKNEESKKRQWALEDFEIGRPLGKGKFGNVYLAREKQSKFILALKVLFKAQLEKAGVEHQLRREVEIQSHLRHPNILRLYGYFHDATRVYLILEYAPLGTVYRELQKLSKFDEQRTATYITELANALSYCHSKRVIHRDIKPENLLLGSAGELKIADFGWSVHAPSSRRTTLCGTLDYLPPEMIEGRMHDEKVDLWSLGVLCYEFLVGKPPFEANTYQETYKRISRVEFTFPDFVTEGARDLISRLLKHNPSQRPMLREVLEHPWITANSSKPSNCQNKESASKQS

[5] = target: Calcium/calmodulin-dependent protein kinase type 1D (Homo sapiens) (UniProt Q8IU85); details: Compound concentration 1000.0 nM
[6] = target: Calcium/calmodulin-dependent protein kinase type II subunit delta (Homo sapiens) (UniProt Q13557); details: Compound concentration 1000.0 nM
[7] = target: Casein kinase I isoform alpha (Homo sapiens) (UniProt P48729); details: Compound concentration 1000.0 nM
Sequence of Casein kinase I isoform alpha (Homo sapiens) (P48729 2-337 limits assumed): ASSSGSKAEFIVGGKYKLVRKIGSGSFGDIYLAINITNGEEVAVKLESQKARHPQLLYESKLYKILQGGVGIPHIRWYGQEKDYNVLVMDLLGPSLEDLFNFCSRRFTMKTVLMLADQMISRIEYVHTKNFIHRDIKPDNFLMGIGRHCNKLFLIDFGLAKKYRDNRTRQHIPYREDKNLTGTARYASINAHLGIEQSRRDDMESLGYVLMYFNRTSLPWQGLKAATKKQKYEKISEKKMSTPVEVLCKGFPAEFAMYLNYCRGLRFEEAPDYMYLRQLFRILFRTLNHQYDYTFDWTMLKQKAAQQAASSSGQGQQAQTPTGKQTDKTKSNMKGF

[8] = target: Casein kinase I isoform gamma-2 (Homo sapiens) (UniProt P78368); details: Compound concentration 1000.0 nM
[9] = target: Death-associated protein kinase 1 (Homo sapiens) (UniProt P53355); details: Compound concentration 1000.0 nM
Sequence of Death-associated protein kinase 1 (Homo sapiens) (P53355 whole entry, looked up): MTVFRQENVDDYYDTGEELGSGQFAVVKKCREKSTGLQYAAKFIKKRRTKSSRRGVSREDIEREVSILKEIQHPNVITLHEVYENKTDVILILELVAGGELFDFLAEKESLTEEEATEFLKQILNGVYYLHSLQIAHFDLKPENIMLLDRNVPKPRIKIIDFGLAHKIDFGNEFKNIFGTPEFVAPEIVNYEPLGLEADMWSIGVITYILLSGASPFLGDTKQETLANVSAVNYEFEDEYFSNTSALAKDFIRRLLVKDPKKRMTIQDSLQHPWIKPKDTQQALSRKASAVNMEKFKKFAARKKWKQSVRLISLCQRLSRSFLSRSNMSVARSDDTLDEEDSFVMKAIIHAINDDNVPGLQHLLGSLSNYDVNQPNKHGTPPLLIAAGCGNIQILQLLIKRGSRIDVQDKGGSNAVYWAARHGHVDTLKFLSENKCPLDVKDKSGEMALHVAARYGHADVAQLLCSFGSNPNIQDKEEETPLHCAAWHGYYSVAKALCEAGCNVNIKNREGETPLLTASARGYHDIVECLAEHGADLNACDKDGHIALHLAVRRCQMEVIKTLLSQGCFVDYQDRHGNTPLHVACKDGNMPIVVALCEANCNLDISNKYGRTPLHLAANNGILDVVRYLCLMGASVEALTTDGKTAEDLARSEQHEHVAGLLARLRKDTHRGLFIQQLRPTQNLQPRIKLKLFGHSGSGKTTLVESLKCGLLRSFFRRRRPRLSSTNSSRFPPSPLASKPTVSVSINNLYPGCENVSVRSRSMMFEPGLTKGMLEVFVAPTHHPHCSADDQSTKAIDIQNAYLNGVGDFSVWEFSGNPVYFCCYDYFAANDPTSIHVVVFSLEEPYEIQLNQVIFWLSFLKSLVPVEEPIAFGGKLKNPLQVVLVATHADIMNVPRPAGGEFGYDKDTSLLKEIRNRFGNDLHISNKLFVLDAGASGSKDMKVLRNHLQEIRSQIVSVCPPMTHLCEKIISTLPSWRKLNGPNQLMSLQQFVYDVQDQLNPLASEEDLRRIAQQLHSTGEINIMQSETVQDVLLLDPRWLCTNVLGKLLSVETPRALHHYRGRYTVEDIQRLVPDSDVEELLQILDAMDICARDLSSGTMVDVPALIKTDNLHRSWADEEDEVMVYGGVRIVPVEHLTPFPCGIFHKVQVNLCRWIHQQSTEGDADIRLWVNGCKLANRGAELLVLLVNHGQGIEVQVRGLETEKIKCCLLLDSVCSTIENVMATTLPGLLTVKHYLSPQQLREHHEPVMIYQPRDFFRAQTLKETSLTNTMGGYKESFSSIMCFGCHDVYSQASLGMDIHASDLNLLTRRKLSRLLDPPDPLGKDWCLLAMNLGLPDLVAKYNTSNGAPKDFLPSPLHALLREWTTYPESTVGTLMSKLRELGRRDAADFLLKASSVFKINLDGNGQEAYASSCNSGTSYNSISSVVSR

[10] = target: Dual specificity tyrosine-phosphorylation-regulated kinase 1A (Homo sapiens) (UniProt Q13627); details: Compound concentration 1000.0 nM
[11] = test system: Epidermal growth factor receptor (Homo sapiens), P00533 [UNDEFINED MUTATION]; details: Compound concentration 1000.0 nM
[12] = target: Ephrin type-A receptor 8 (Homo sapiens) (UniProt P29322); details: Compound concentration 1000.0 nM
[13] = test system: Receptor-type tyrosine-protein kinase FLT3 (Homo sapiens), P36888 [UNDEFINED MUTATION]; details: Compound concentration 1000.0 nM
[14] = target: Tyrosine-protein kinase Fyn (Homo sapiens) (UniProt P06241); details: Compound concentration 1000.0 nM
[15] = target: Glycogen synthase kinase-3 beta (Homo sapiens) (UniProt P49841); details: Compound concentration 1000.0 nM
[16] = target: Inhibitor of nuclear factor kappa-B kinase subunit alpha (Homo sapiens) (UniProt O15111); details: Compound concentration 1000.0 nM
[17] = target: Inhibitor of nuclear factor kappa-B kinase subunit epsilon (Homo sapiens) (UniProt Q14164); details: Compound concentration 1000.0 nM
[18] = target: Mitogen-activated protein kinase 9 (Homo sapiens) (UniProt P45984); details: Compound concentration 1000.0 nM
[19] = target: Mast/stem cell growth factor receptor Kit (Homo sapiens) (UniProt P10721); details: Compound concentration 1000.0 nM
[20] = target: Mitogen-activated protein kinase kinase kinase 2 (Homo sapiens) (UniProt Q9Y2U5); details: Compound concentration 1000.0 nM
[21] = target: Dual specificity mitogen-activated protein kinase kinase 4 (Homo sapiens) (UniProt P45985); details: Compound concentration 1000.0 nM
Sequence of Dual specificity mitogen-activated protein kinase kinase 4 (Homo sapiens) (P45985 whole entry): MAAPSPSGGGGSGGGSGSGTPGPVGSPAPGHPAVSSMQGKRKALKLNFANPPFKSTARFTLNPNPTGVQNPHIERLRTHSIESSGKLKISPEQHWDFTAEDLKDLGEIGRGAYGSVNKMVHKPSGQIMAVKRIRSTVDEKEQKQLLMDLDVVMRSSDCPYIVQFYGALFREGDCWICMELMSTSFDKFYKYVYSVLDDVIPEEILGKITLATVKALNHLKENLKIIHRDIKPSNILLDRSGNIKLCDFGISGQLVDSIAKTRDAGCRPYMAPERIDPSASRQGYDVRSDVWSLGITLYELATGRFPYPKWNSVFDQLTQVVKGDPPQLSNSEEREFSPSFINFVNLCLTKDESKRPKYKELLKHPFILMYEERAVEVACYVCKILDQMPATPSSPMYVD

[22] = test system: Hepatocyte growth factor receptor (Homo sapiens), P08581 [Y1235D]; details: Compound concentration 1000.0 nM
[23] = target: Mitogen-activated protein kinase kinase kinase 9 (Homo sapiens) (UniProt P80192); details: Compound concentration 1000.0 nM
[24] = target: Serine/threonine-protein kinase 26 (Homo sapiens) (UniProt Q9P289); details: Compound concentration 1000.0 nM
[25] = target: Myosin light chain kinase, smooth muscle (Homo sapiens) (UniProt Q15746); details: Compound concentration 1000.0 nM
[26] = target: Serine/threonine-protein kinase Nek3 (Homo sapiens) (UniProt P51956); details: Compound concentration 1000.0 nM
[27] = target: Cyclin-dependent kinase 16 (Homo sapiens) (UniProt Q00536); details: Compound concentration 1000.0 nM
[28] = target: Cyclin-dependent kinase 15 (Homo sapiens) (UniProt Q96Q40); details: Compound concentration 1000.0 nM
Sequence of Cyclin-dependent kinase 15 (Homo sapiens) (Q96Q40 whole entry, canonical isoform): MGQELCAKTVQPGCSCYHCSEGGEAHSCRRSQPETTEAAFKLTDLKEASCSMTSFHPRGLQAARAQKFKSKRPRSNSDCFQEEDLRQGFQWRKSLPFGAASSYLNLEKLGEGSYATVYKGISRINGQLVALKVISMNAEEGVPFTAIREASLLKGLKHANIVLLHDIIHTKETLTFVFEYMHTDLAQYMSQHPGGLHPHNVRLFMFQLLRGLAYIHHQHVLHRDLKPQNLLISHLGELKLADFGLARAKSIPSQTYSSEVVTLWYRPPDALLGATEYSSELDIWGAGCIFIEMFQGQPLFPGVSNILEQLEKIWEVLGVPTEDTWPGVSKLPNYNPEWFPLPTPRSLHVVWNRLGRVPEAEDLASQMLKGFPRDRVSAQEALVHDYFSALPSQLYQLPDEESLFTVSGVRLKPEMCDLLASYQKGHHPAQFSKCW

[29] = target: Phosphatidylinositol 4,5-bisphosphate 3-kinase catalytic subunit alpha isoform (Homo sapiens) (UniProt P42336); details: Compound concentration 1000.0 nM
[30] = target: Phosphatidylinositol 4-kinase beta (Homo sapiens) (UniProt Q9UBF8); details: Compound concentration 1000.0 nM
Sequence of Phosphatidylinositol 4-kinase beta (Homo sapiens) (Q9UBF8 2-816 limits assumed): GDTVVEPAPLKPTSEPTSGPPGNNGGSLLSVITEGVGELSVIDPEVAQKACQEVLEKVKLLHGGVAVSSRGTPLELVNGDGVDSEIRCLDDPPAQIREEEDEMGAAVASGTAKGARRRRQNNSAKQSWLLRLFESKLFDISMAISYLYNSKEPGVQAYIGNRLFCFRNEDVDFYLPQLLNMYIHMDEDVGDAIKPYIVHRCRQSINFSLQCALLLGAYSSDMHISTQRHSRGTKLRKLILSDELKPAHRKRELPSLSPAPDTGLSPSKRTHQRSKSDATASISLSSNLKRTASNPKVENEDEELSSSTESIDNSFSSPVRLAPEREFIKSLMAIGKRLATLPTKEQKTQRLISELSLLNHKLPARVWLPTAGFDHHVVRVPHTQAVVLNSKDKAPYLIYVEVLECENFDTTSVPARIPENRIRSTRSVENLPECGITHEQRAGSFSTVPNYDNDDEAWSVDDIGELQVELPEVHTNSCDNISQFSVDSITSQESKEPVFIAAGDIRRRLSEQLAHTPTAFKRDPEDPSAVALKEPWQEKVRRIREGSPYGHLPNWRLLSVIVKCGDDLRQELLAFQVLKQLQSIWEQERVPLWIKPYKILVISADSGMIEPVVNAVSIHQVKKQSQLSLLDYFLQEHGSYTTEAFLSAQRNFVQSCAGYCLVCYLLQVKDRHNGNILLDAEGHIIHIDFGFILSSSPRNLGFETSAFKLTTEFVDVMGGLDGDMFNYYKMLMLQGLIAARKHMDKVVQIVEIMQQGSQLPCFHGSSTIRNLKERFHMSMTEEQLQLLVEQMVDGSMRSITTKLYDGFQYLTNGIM

[31] = target: Serine/threonine-protein kinase N2 (Homo sapiens) (UniProt Q16513); details: Compound concentration 1000.0 nM
[32] = target: Serine/threonine-protein kinase PLK4 (Homo sapiens) (UniProt O00444); details: Compound concentration 1000.0 nM
[33] = target: Protein kinase C eta type (Homo sapiens) (UniProt P24723); details: Compound concentration 1000.0 nM
[34] = target: Serine/threonine-protein kinase D2 (Homo sapiens) (UniProt Q9BZL6); details: Compound concentration 1000.0 nM
[35] = target: Serine/threonine-protein kinase SIK3 (Homo sapiens) (UniProt Q9Y2K2); details: Compound concentration 1000.0 nM
[36] = test system: Proto-oncogene tyrosine-protein kinase receptor Ret (Homo sapiens), P07949 [V804L]; details: Compound concentration 1000.0 nM
Sequence of Proto-oncogene tyrosine-protein kinase receptor Ret (Homo sapiens), P07949 [V804L] (P07949 whole entry V804L): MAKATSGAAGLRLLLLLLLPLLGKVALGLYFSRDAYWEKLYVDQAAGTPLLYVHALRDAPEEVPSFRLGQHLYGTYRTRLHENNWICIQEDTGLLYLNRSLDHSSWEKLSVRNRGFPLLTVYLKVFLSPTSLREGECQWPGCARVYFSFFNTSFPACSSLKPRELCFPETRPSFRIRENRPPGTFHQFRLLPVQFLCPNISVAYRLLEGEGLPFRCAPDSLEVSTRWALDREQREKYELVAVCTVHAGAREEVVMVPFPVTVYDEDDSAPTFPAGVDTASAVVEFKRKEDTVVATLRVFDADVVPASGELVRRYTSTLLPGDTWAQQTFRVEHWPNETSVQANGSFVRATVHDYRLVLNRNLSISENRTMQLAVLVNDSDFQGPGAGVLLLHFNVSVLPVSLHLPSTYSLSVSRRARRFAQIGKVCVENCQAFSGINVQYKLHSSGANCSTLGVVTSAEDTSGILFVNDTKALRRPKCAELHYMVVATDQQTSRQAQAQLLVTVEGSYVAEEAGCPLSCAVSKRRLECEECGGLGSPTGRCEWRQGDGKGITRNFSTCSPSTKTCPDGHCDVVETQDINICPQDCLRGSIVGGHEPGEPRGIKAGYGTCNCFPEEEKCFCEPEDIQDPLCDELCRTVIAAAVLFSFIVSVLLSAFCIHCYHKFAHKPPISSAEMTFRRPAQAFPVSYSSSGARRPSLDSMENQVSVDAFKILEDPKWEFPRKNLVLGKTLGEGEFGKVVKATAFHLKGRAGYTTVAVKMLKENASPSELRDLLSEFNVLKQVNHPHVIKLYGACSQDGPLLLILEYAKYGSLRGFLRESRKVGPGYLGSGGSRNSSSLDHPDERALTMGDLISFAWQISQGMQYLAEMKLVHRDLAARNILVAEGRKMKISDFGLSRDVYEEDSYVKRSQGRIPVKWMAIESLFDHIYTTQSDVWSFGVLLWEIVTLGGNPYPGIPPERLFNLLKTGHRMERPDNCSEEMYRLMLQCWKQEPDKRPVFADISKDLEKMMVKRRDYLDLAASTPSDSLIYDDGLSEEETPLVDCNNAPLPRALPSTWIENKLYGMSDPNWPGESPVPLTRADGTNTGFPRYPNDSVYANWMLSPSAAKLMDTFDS

[37] = target: Ribosomal protein S6 kinase alpha-5 (Homo sapiens) (UniProt O75582); details: Compound concentration 1000.0 nM
[38] = target: SRSF protein kinase 1 (Homo sapiens) (UniProt Q96SB4); details: Compound concentration 1000.0 nM
[39] = target: Serine/threonine-protein kinase 35 (Homo sapiens) (UniProt Q8TDR2); details: Compound concentration 1000.0 nM
[40] = target: Tyrosine-protein kinase receptor Tie-1 (Homo sapiens) (UniProt P35590); details: Compound concentration 1000.0 nM
[41] = target: Non-receptor tyrosine-protein kinase TNK1 (Homo sapiens) (UniProt Q13470); details: Compound concentration 1000.0 nM
[42] = target: Serine/threonine-protein kinase ULK1 (Homo sapiens) (UniProt O75385); details: Compound concentration 1000.0 nM
[43] = target: Serine/threonine-protein kinase WNK2 (Homo sapiens) (UniProt Q9Y3S1); details: Compound concentration 1000.0 nM
[44] = target: Alpha-2A adrenergic receptor (Homo sapiens) (UniProt P08913); details: Compound concentration 10.0 uM
[45] = target: Sigma non-opioid intracellular receptor 1 (Homo sapiens, UniProt Q99720); details: Compound concentration 10.0 uM

SMILES: CCC(=N\O)/C(C)=C/c1ccc(F)c(C)c1 [A-226]
- residual activity [1]: 98%
- residual activity [2]: 100%
- residual activity [3]: 97%
- residual activity [4]: 82%
- residual activity [5]: 92%
- residual activity [6]: 100%
- residual activity [7]: 100%
- residual activity [8]: 100%
- residual activity [9]: 97%
- residual activity [10]: 100%
- residual activity [11]: 69%
- residual activity [12]: 99%
- residual activity [13]: 100%
- residual activity [14]: 72%
- residual activity [15]: 100%
- residual activity [16]: 95%
- residual activity [17]: 100%
- residual activity [18]: 100%
- residual activity [19]: 100%
- residual activity [20]: 100%
- residual activity [21]: 100%
- residual activity [22]: 100%
- residual activity [23]: 100%
- residual activity [24]: 100%
- residual activity [25]: 93%
- residual activity [26]: 100%
- residual activity [27]: 100%
- residual activity [28]: 100%
- residual activity [29]: 100%
- residual activity [30]: 100%
- residual activity [31]: 100%
- residual activity [32]: 100%
- residual activity [33]: 68%
- residual activity [34]: 100%
- residual activity [35]: 89%
- residual activity [36]: 97%
- residual activity [37]: 78%
- residual activity [38]: 100%
- residual activity [39]: 100%
- residual activity [40]: 100%
- residual activity [41]: 100%
- residual activity [42]: 96%
- residual activity [43]: 100%
- inhibition [44]: 2.82%
- inhibition [45]: 86.8%

SMILES: CCC(=N\O)/C(C)=C/c1ccc(F)cc1 [A-079]
- residual activity [1]: 89%
- residual activity [2]: 81%
- residual activity [3]: 87%
- residual activity [4]: 100%
- residual activity [5]: 100%
- residual activity [6]: 99%
- residual activity [7]: 74%
- residual activity [8]: 87%
- residual activity [9]: 100%
- residual activity [10]: 91%
- residual activity [11]: 61%
- residual activity [12]: 100%
- residual activity [13]: 67%
- residual activity [14]: 100%
- residual activity [15]: 79%
- residual activity [16]: 67%
- residual activity [17]: 94%
- residual activity [18]: 92%
- residual activity [19]: 80%
- residual activity [20]: 85%
- residual activity [21]: 75%
- residual activity [22]: 85%
- residual activity [23]: 77%
- residual activity [24]: 81%
- residual activity [25]: 100%
- residual activity [26]: 100%
- residual activity [27]: 86%
- residual activity [28]: 80%
- residual activity [29]: 100%
- residual activity [30]: 50%
- residual activity [31]: 80%
- residual activity [32]: 75%
- residual activity [33]: 100%
- residual activity [34]: 99%
- residual activity [35]: 68%
- residual activity [36]: 100%
- residual activity [37]: 100%
- residual activity [38]: 100%
- residual activity [39]: 100%
- residual activity [40]: 63%
- residual activity [41]: 66%
- residual activity [42]: 85%
- residual activity [43]: 80%
- inhibition [44]: 5.31%
- inhibition [45]: 84%
